According to ChEMBL document CHEMBL1152667, “Synthesis and radiopharmacological investigation of 3-[4'-[(18)F]fluorobenzylidene]indolin-2-one as possible tyrosine kinase inhibitor” (Bioorg Med Chem, 2009):

Tests used:
[1] = system: Lung; assay: Biodistribution in Wistar rat lung at 1.7 MBq, iv administered as single dose measured after 30 mins post-injection by gamma counting; type: ADME, organism-based; conditions: in vivo, 0.5 h
[2] = system: Femur; assay: Biodistribution in Wistar rat femur at 1.7 MBq, iv administered as single dose measured after 60 mins post-injection by gamma counting; type: ADME, organism-based; conditions: in vivo, 1 h
[3] = system: Lung; assay: Biodistribution in Wistar rat lung assessed as standard uptake value at 1.7 MBq, iv administered as single dose measured after 60 mins post-injection by gamma counting; type: ADME, organism-based; conditions: in vivo, 1 h
[4] = Biodistribution in Wistar rat thyroid gland at 1.7 MBq, iv administered as single dose measured after 60 mins post-injection by gamma counting; type: ADME, organism-based; conditions: in vivo, 1 h
[5] = system: Kidney; assay: Biodistribution in Wistar rat kidney at 1.7 MBq, iv administered as single dose measured after 10 mins post-injection by gamma counting; type: ADME, organism-based; conditions: in vivo
[6] = system: Liver; assay: Biodistribution in Wistar rat liver assessed as standard uptake value at 1.7 MBq, iv administered as single dose measured after 30 mins post-injection by gamma counting; type: ADME, organism-based; conditions: in vivo, 0.5 h
[7] = Metabolic stability in Wistar rat blood assessed as compound remaining at 0.5 MBq after 60 mins by radio-HPLC analysis; type: ADME, tissue-based; conditions: read-out: Stability
[8] = system: Spleen; assay: Biodistribution in Wistar rat spleen at 1.7 MBq, iv administered as single dose measured after 1 min post-injection by gamma counting; type: ADME, organism-based; conditions: in vivo
[9] = system: Adrenal gland; assay: Biodistribution in Wistar rat adrenal gland at 1.7 MBq, iv administered as single dose measured after 10 mins post-injection by gamma counting; type: ADME, organism-based; conditions: in vivo
[10] = Ratio of drug level in brain to blood in Wistar rat at 1.7 MBq, iv administered as single dose measured after 5 mins post-injection; type: ADME, organism-based
[11] = Ratio of drug level in brain to blood in Wistar rat at 1.7 MBq, iv administered as single dose measured after 60 mins post-injection; type: ADME, organism-based
[12] = system: Pancreas; assay: Biodistribution in Wistar rat pancreas assessed as standard uptake value at 1.7 MBq, iv administered as single dose measured after 60 mins post-injection by gamma counting; type: ADME, organism-based; conditions: in vivo, 1 h
[13] = system: Adrenal gland; assay: Biodistribution in Wistar rat adrenal gland at 1.7 MBq, iv administered as single dose measured after 1 min post-injection by gamma counting; type: ADME, organism-based; conditions: in vivo
[14] = system: Brain; assay: Biodistribution in Wistar rat brain at 1.7 MBq, iv administered as single dose measured after 30 mins post-injection by gamma counting; type: ADME, organism-based; conditions: in vivo, 0.5 h
[15] = system: Spleen; assay: Biodistribution in Wistar rat spleen assessed as standard uptake value at 1.7 MBq, iv administered as single dose measured after 10 mins post-injection by gamma counting; type: ADME, organism-based; conditions: in vivo
[16] = system: Spleen; assay: Biodistribution in Wistar rat spleen assessed as standard uptake value at 1.7 MBq, iv administered as single dose measured after 60 mins post-injection by gamma counting; type: ADME, organism-based; conditions: in vivo, 1 h
[17] = Metabolic stability in Wistar rat blood assessed as compound remaining at 30 MBq, iv after 20 mins by radio-HPLC analysis; type: ADME, organism-based; conditions: read-out: Stability
[18] = Biodistribution in Wistar rat hair/skin assessed as standard uptake value at 1.7 MBq, iv administered as single dose measured after 10 mins post-injection by gamma counting; type: ADME, organism-based; conditions: in vivo
[19] = system: Femur; assay: Biodistribution in Wistar rat femur assessed as standard uptake value at 1.7 MBq, iv administered as single dose measured after 1 min post-injection by gamma counting; type: ADME, organism-based; conditions: in vivo
[20] = system: Spleen; assay: Biodistribution in Wistar rat spleen at 1.7 MBq, iv administered as single dose measured after 5 mins post-injection by gamma counting; type: ADME, organism-based; conditions: in vivo
[21] = Ratio of drug level in liver to blood in Wistar rat at 1.7 MBq, iv administered as single dose measured after 60 mins post-injection; type: ADME, organism-based
[22] = Octanol-phosphate buffer distribution coefficient, log D at pH 7.4 by shake-flask method; type: physicochemical
[23] = system: Kidney; assay: Biodistribution in Wistar rat kidney assessed as standard uptake value at 1.7 MBq, iv administered as single dose measured after 1 min post-injection by gamma counting; type: ADME, organism-based; conditions: in vivo
[24] = system: Thymus; assay: Biodistribution in Wistar rat thymus at 1.7 MBq, iv administered as single dose measured after 60 mins post-injection by gamma counting; type: ADME, organism-based; conditions: in vivo, 1 h
[25] = system: Adrenal gland; assay: Biodistribution in Wistar rat adrenal gland at 1.7 MBq, iv administered as single dose measured after 60 mins post-injection by gamma counting; type: ADME, organism-based; conditions: in vivo, 1 h
[26] = system: Pancreas; assay: Biodistribution in Wistar rat pancreas assessed as standard uptake value at 1.7 MBq, iv administered as single dose measured after 5 mins post-injection by gamma counting; type: ADME, organism-based; conditions: in vivo
[27] = system: Brain; assay: Biodistribution in Wistar rat brain at 1.7 MBq, iv administered as single dose measured after 10 mins post-injection by gamma counting; type: ADME, organism-based; conditions: in vivo
[28] = system: Liver; assay: Biodistribution in Wistar rat liver at 1.7 MBq, iv administered as single dose measured after 10 mins post-injection by gamma counting; type: ADME, organism-based; conditions: in vivo
[29] = system: Spleen; assay: Biodistribution in Wistar rat spleen at 1.7 MBq, iv administered as single dose measured after 10 mins post-injection by gamma counting; type: ADME, organism-based; conditions: in vivo
[30] = system: Thymus; assay: Biodistribution in Wistar rat thymus at 1.7 MBq, iv administered as single dose measured after 1 min post-injection by gamma counting; type: ADME, organism-based; conditions: in vivo
[31] = system: Adrenal gland; assay: Biodistribution in Wistar rat adrenal gland assessed as standard uptake value at 1.7 MBq, iv administered as single dose measured after 5 mins post-injection by gamma counting; type: ADME, organism-based; conditions: in vivo
[32] = Metabolic stability in Wistar rat blood assessed as compound remaining at 30 MBq, iv after 5 mins by radio-HPLC analysis; type: ADME, organism-based; conditions: read-out: Stability
[33] = system: Thymus; assay: Biodistribution in Wistar rat thymus assessed as standard uptake value at 1.7 MBq, iv administered as single dose measured after 5 mins post-injection by gamma counting; type: ADME, organism-based; conditions: in vivo
[34] = system: Femur; assay: Biodistribution in Wistar rat femur at 1.7 MBq, iv administered as single dose measured after 30 mins post-injection by gamma counting; type: ADME, organism-based; conditions: in vivo, 0.5 h
[35] = system: Liver; assay: Biodistribution in Wistar rat liver at 1.7 MBq, iv administered as single dose measured after 5 mins post-injection by gamma counting; type: ADME, organism-based; conditions: in vivo
[36] = Ratio of drug level in pancreas to blood in Wistar rat at 1.7 MBq, iv administered as single dose measured after 60 mins post-injection; type: ADME, organism-based
[37] = system: Brain; assay: Biodistribution in Wistar rat brain assessed as standard uptake value at 1.7 MBq, iv administered as single dose measured after 60 mins post-injection by gamma counting; type: ADME, organism-based; conditions: in vivo, 1 h
[38] = Biodistribution in Wistar rat urine at 1.7 MBq, iv administered as single dose measured after 30 mins post-injection by gamma counting; type: ADME, organism-based; conditions: in vivo, 0.5 h
[39] = system: Muscle tissue; assay: Biodistribution in Wistar rat muscle assessed as standard uptake value at 1.7 MBq, iv administered as single dose measured after 10 mins post-injection by gamma counting; type: ADME, organism-based; conditions: in vivo
[40] = system: Heart; assay: Biodistribution in Wistar rat heart assessed as standard uptake value at 1.7 MBq, iv administered as single dose measured after 1 min post-injection by gamma counting; type: ADME, organism-based; conditions: in vivo
[41] = system: Harderian gland; assay: Biodistribution in Wistar rat harderian gland assessed as standard uptake value at 1.7 MBq, iv administered as single dose measured after 60 mins post-injection by gamma counting; type: ADME, organism-based; conditions: in vivo, 1 h
[42] = Biodistribution in Wistar rat adipose tissue assessed as standard uptake value at 1.7 MBq, iv administered as single dose measured after 10 mins post-injection by gamma counting; type: ADME, organism-based; conditions: in vivo
[43] = Biodistribution in Wistar rat thyroid gland at 1.7 MBq, iv administered as single dose measured after 5 mins post-injection by gamma counting; type: ADME, organism-based; conditions: in vivo

## O=C1Nc2ccccc2/C1=C/c1ccc([18F])cc1
[1]
  Drug uptake: 0.33 %ID
[2]
  Drug uptake: 0.11 %ID
[3]
  SUV: 0.27%
[4]
  Drug uptake: 0.01 %ID
[5]
  Drug uptake: 2.28 %ID
[6]
  SUV: 1.68%
[7]
  remaining at 1 h, 0.5 MBq: 84%
[8]
  Drug uptake: 0.31 %ID
[9]
  Drug uptake: 0.1 %ID
[10]
  Kp at 5 min: 3
[11]
  Kp at 1 h: 3.2
[12]
  SUV: 0.3%
[13]
  Drug uptake: 0.15 %ID
[14]
  Drug uptake: 0.44 %ID
[15]
  SUV: 0.52%
[16]
  SUV: 0.13%
[17]
  remaining at 20 min: 12%
[18]
  SUV: 0.74%
[19]
  SUV: 0.89%
[20]
  Drug uptake: 0.23 %ID
[21]
  Kp at 1 h: 7.9
[22]
  logD: 3.39
[23]
  SUV: 3.36%
[24]
  Drug uptake: 0.05 %ID
[25]
  Drug uptake: 0.04 %ID
[26]
  SUV: 1.66%
[27]
  Drug uptake: 1.09 %ID
[28]
  Drug uptake: 17.84 %ID
[29]
  Drug uptake: 0.14 %ID
[30]
  Drug uptake: 0.5 %ID
[31]
  SUV: 5.71%
[32]
  remaining at 5 min: 40%
[33]
  SUV: 0.82%
[34]
  Drug uptake: 0.13 %ID
[35]
  Drug uptake: 18.4 %ID
[36]
  Kp at 1 h: 2.1
[37]
  SUV: 0.18%
[38]
  Drug uptake: 11.23 %ID
[39]
  SUV: 0.69%
[40]
  SUV: 2.52%
[41]
  SUV: 0.46%
[42]
  SUV: 1.26%
[43]
  Drug uptake: 0.08 %ID
